From the NIST ThermoML archive (doi:10.1016/j.jct.2009.02.007)
Numbers after ± are expanded uncertainties.

What was measured:
[1] = 101.33 kPa, Liquid, Vibrating tube method
[2] = xn = mol fraction of the nth substance listed; details: 101 kPa, Liquid, Vibrating tube method

O=Cc1ccccc1 [benzaldehyde]
[1]
Details	mass density [kg/m3]
298.15 K	1044.2 ± 0.26
303.15 K	1040.21 ± 0.26
308.15 K	1036.15 ± 0.26
313.15 K	1032.15 ± 0.25

O=Cc1ccccc1 [benzaldehyde] + CCCCn1cc[n+](C)c1.F[B-](F)(F)F
mass density [kg/m3], [2]
Details	x2 = 0.1001	x2 = 0.1998	x2 = 0.2997	x2 = 0.4	x2 = 0.4999	x2 = 0.5998	x2 = 0.6999	x2 = 0.7971	x2 = 0.8991
298.15 K	1078.64 ± 0.34	1105.45 ± 0.42	1127.3 ± 0.51	1145.56 ± 0.6	1160.76 ± 0.7	1173.77 ± 0.81	1184.7 ± 0.92	1193.8 ± 1	1202.44 ± 1.2
303.15 K	1072.78 ± 0.34	1098.6 ± 0.42	1119.46 ± 0.5	1136.76 ± 0.59	1151.14 ± 0.69	1163.4 ± 0.79	1173.86 ± 0.9	1182.59 ± 1	1190.51 ± 1.1
308.15 K	1068.6 ± 0.33	1094.81 ± 0.41	1116.11 ± 0.5	1133.67 ± 0.59	1148.32 ± 0.68	1160.74 ± 0.78	1171.52 ± 0.89	1180.59 ± 1	1188.53 ± 1.1
313.15 K	1064.7 ± 0.33	1090.93 ± 0.41	1112.3 ± 0.49	1129.92 ± 0.58	1144.5 ± 0.68	1156.92 ± 0.78	1167.64 ± 0.89	1176.6 ± 1	1184.48 ± 1.1

CCCCn1cc[n+](C)c1.F[B-](F)(F)F [1-butyl-3-methylimidazolium tetrafluoroborate]
[1]
Details	mass density [kg/m3]
298.15 K	1211.03 ± 1.3
303.15 K	1197.45 ± 1.3
308.15 K	1194.6 ± 1.3
313.15 K	1190.44 ± 1.2
